Results: publication PMC9225715, “Development of PD3 and PD3-B for PDEδ inhibition to modulate KRAS activity” (Journal of Enzyme Inhibition and Medicinal Chemistry, 2022)

How the values were obtained:
[1] = biological target: T1, PDEδ (Homo sapiens, UniProt O43924); test: FP-based competition binding assay using excess deltarasin
T1 construct: made in house; host or cells: E. coli BL21(DE3)
Procedure: Figure 3. Binding affinities of PDs measured by fluorescence polarisation. (A) Representative binding curve of PDs (PD3) titrated with PDEδ. The FP value was measured in PBS buffer (pH 7.2) containing 8 concentrations (0, 0.5, 1, 2, 4, 8, 16 and 32 μM) of PDEδ mixed with 0.5 μM PDs. Ex: 440 nm, Em: 526 nm; (B) Kd value and half-life of each compound; (C, D) Kinetic trace of PD3 and PD7 in the competition assay. PD3 was shown as a compound with the longest retention time (slow dissociation), whereas PD7 was shown as a compound with the shortest retention time (fast dissociation). The half-life was obtained by a competition binding assay using excess deltarasin. The optimal concentration of PDEδ for the competition assay was determined using the Kd value and PD concentration (0.5 μM) for making more than 68% of the binding complex. Ex: 430 nm, Em: 520 nm. TEXT PRINTED IN THE PICTURE: (A) PD3: Best-fit values Bmax: 261.7; Best-fit values Kd: 0.4991; Std. Error Bmax: 17.98; Std. […] Error Bmax 17.98 (last digit 8 or 6) and Std. Error Kd 0.1956 (5 and 6 not certain) / Panels C and D: k and half-life are printed without a label of their own; assigned to PD3 and PD7 from the panel legends (PDEδ+PD3+Del, PDEδ+PD7+Del)
To confirm that the PD compound occupies the same farnesylation binding site as deltarasin in PDEδ and to exclude the possibility that the FP signal resulted from non-specific hydrophobic interactions, we carried out a FP-based competition assay. PDs (0.5 µM) were incubated with the purified PDEδ protein for 2 h to ensure complete binding between the compound and the protein. Then, deltarasin was added to replace the PD compound in the prenyl binding pocket of PDEδ, which decreased the FP due to the free rotation of the released PD compound. As shown in Figure 3(B), the reverse correlation between Kd values and half-lives was observed (Figure 3(B) and Table 1). […] The rate constants and half-lives were measured only when the increased concentration of deltarasin produced concentration-independent kinetic parameters, which reflects complete displacement of the binding site with the deltarasin. The kinetic trace was fit to a single exponential decay to generate the dissociation rate constant and half-life. Given that the Kd value is a ratio of koff/kon in a simple bimolecular binding model, the measured half-life and Kd are not always matched due to the contribution from the association rate constant. Figure 3(C) (PD3) and 3 D (PD7) show a representative kinetic trace obtained in the competition assay.
Deltarasin, a well-known PDEδ inhibitor, was purchased from Chemietek (Indianapolis, IN) for the competition assay. Assay buffer and the plate were the same as used in fluorescence polarisation assay. The optimal concentration of PDEδ was determined based on the Kd values and ligand concentration (0.5 µM) to ensure the formation of ligand-protein complex. The mixture of PDEδ and compounds were incubated for 2 h at 4 °C. After adding deltarasin to the mixture, FP was immediately recorded by SpectraMax M5 microplate reader (Molecular Devices, San Jose, CA) with excitation at 430 nm and emission at 520 nm. In SpectraMax M5 microplate reader, single excitation and emission wavelengths need to be used for testing all compounds. Therefore, Ex 430/Em 520 was used for competition binding assay. The selected ex/em wavelengths have only a difference of less than 10 nm from the maximum wavelengths, and there was no critical issue for conducting assay. The kinetic trace was fit to a single exponential decay to generate dissociation rate constant and half-life.

[2] = biological target: T1, PDEδ; test: Fluorescence measurement after incubation with recombinant PDEδ; assay type: binding; details: 2 µM PD + 2 µM PDEδ, 20 mM Tris buffer pH 7.5, Ex 280 nm
Procedure: With the structural rationale for the binding to PDEδ from the molecular docking studies, we measured the fluorescence responses of the PDs after incubation with recombinant PDEδ proteins to confirm the binding of PDs to PDEδ. We envisioned that the hydrophobic environment of the prenyl binding pocket of PDEδ, as depicted in Figure 1(C), could enhance the fluorescent signal due to the solvatochromic characteristics of IQ scaffold. In addition, tryptophan residues near the binding site of PDEδ and the fluorophore of PDs could act as a fluorescence resonance energy transfer (FRET) pair. […] All recoded spectra of PDs are depicted in Supplemental Figure S1. To compare the binding abilities of PD derivatives to the target protein, same concentration (2 µM) of PD compound was treated and then fluorescence intensity was measured in Spectrofluorometer FP-6500.
The fluorescence changes were measured to determine the interaction between PD compounds and PDEδ protein. The fluorescence spectra were obtained under Tris buffer [20 mM Tris-HCl (pH 7.5), 100 mM NaCl] at 20 °C. The concentration of PDEδ was 2 µM. After the addition of 2 µM PD compound, the mixture was gently inverted 3 times and then incubated for 1 min. The emission spectra were recorded on Spectrofluorometer FP-6500 (JASCO, Tokyo, Japan) at Ex 280 nm. The band width was 3 nm for excitation and 5 nm for emission.

[3] = biological target: T1, PDEδ; test: Native gel electrophoresis with in-gel fluorescence (target specificity); assay type: binding; details: 5 or 50 µM PD3, PDEδ-overexpressing bacterial lysate or purified PDEδ, 12% native gel
Procedure: We also conducted native gel electrophoresis to further verify the specific binding of PD3 to native PDEδ using in-gel fluorescence scanning. […] We assumed that PD3 bound within the tertiary structure would be identified on the native gel. PD3 was incubated with bacterial lysate containing the overexpressed PDEδ protein (Figure 4(C,D), lanes 1–3) or purified PDEδ (Figure 4(C,D), lanes 4–6), and then these samples were run in a native gel to avoid denaturation of the protein. The in-gel fluorescence shown in Figure 4(C) (Ex: 312 nm, Em: 585–625 nm) was compared to the same gel stained with Coomassie that visualised the protein bands (Figure 4(D)), which confirmed the formation of the PD3-target protein complex. As expected, the fluorescence band was detected at the location of PDEδ and only detected in the lane with PD3 (lanes 2, 3, 5, and 6).
PD3 (5 or 50 µM) was added to the bacterial lysate (390 µM) or purified PDEδ protein (22.9 µM) and the mixture was incubated for 2 h at 4 °C. The samples were loaded on each lane and separated by 12% native PAGE in a running buffer [25 mM Tris-HCl (pH 8.0), 500 mM NaCl, 10 mM imidazole, 10% Glycerol] with 1/4 pellet of protease inhibitor (Roche, Penzberg, Upper Bavaria, Germany). The gels were run at 70 V for 2.5 h, followed by in-gel fluorescence measurement. The same gel was stained by Coomassie brilliant blue to visualise protein bands.

- Half-life ([1]; representative kinetic trace, single exponential decay): 45 min
- koff ([1]; representative kinetic trace, single exponential decay, read-out: dissociation rate constant k (converted)): 0.00025 s⁻¹
- Half-life ([1]; retention in PDEδ on displacement by excess deltarasin, 0.5 µM PD, mean ± SD of three independent experiments): 41 ± 6 min
SMILES: Cc1ccc(-c2nc3ccccc3c3cc4ccccn4c23)cc1 [PD3, 6-(p-tolyl)indolizino[3,2-c]quinoline]
- Fluorescence response upon incubation with PDEδ [2]: exceeded the maximum detection limit of Spectrofluorometer
- Binding specificity to PDEδ by in-gel fluorescence [3]: specifically binds to PDEδ in bacterial lysates
